Reference: patent US20260315492A1, “5,6-FUSED BICYCLIC AMIDES AND COMPOSITIONS FOR USE AS 15-PROSTAGLANDIN DEHYDROGENASE MODULATORS” (AMGEN INC., priority 2023, published 2026)

Target: T1, human recombinant 15-PGDH (Homo sapiens, UniProt P15428)
T1 sequence (P15428 1-266): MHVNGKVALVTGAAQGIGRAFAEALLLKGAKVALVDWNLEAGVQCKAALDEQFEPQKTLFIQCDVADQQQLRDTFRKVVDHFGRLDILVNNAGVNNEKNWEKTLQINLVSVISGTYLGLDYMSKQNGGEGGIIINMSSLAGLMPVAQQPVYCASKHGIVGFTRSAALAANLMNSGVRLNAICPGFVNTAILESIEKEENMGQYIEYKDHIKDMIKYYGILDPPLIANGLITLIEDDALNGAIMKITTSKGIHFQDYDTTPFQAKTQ
Assay: Inhibition of recombinant 15-PGDH enzymatic activity (NADH quantification after addition of PGE2 and NAD+)
Type: biochemical
Details: not given
Description: The compound dose-response of its inhibition of 15-PGDH activity was determined in human recombinant 15-PGDH enzymatical assays. These assays measured 15-PGDH enzymatic activity by quantifying the amount of NADH produced during a 60-minute reaction initiated by the addition of PGE2 and NAD+. Under the conditions of these experiments, the increase of NADH signal upon oxidation of PGE2 and reduction of NAD+ was linearly proportional to 15-PGDH enzymatic activity. The recombinant human, mouse, rat and dog 15-PGDH enzymatic assays were performed in a 25 μL volume of reaction buffer containing 50 mM Tris, pH 7.5, 0.01% Tween-20 and 100 μM DTT in a 384-well microtiter plate. In concentration-response experiments with tested compounds, 22 concentrations from 2-fold serial dilutions in DMSO were pre-incubated with 15-PGDH for 15 minutes at room temperature. Then, PGE2 and ß-NAD+ were added to initiate the 15-PGDH reaction. After 60 minutes at room temperature, the reaction was quenched and NADH signal was measured using a microtiter plate reader.
The following data (Table 11-1) provides the IC50 of each compound for inhibiting enzymatic activity of recombinant 15-PGDH in the assay described above.

| IC50 | SMILES |
| --- | --- |
| 0.387 nM | Cn1cc2cc(-c3cc(C4CCC4)c4c(N)c(C(=O)N5CCC(F)(F)CC5)sc4n3)cnc2n1 [Compound B4, (3-amino-4-cyclobutyl-6-(2-methyl-2H-pyrazolo[3,4-b]pyridin-5-yl)thieno[2,3-b]pyridin-2-yl)(4,4-difluoro-1-piperidinyl)methanone] |

Same assay, conditions: recombinant 15-PGDH; 15 min pre-incubation, 60-minute reaction, room temperature, pH 7.5; PGE2 and NAD+; read-out: PGDH-Lumi IC50

| IC50 | SMILES |
| --- | --- |
| 3.11 nM | C[C@@H]1COCCN1C(=O)c1cc2c(C3CC3)cc(-c3cnc4nn(C)cc4c3)nc2s1 (single isomer, unassigned) [Compound B17R] |
| 1.51 nM | CC1CC(F)(F)CCN1C(=O)c1cc2ccc(-c3cnc4nn(C)cc4c3)nc2s1 (single isomer, unassigned) [Compound B27R] |
| 1.24 nM | C[C@H]1CC(F)(F)CCN1C(=O)c1cc2ccc(-c3cnc4nn(C)cc4c3)nc2s1 (single isomer, unassigned) [Compound B27S] |
| 1.75 nM | Cn1cc2cc(-c3ccc4cc(C(=O)N5C[C@H]6CC[C@@H]5CO6)sc4n3)cnc2n1 (stereo in doubt) [Compound B52, (6-(2-methyl-2H-pyrazolo[3,4-b]pyridin-5-yl)thieno[2,3-b]pyridin-2-yl)(2-oxa-5-azabicyclo[2.2.2]octan-5-yl)methanone] |
| 273 nM | Cc1c(C(=O)N2CCOC[C@H]2C)sc2cc(-c3cnc4nn(C)cc4c3)ccc12 [Compound A1R, (3-methyl-6-(2-methyl-2H-pyrazolo[3,4-b]pyridin-5-yl)-1-benzothiophen-2-yl)((3R)-3-methyl-4-morpholinyl)methanone] |
| 217 nM | Cc1c(C(=O)N2CCOC[C@@H]2C)sc2cc(-c3cnc4nn(C)cc4c3)ccc12 [Compound A1S, (3-methyl-6-(2-methyl-2H-pyrazolo[3,4-b]pyridin-5-yl)-1-benzothiophen-2-yl)((3S)-3-methyl-4-morpholinyl)methanone] |
| 163 nM | Cc1c(C(=O)N2CCOCC2)sc2cc(-c3cnc4nn(C)cc4c3)ccc12 [Compound A2, (3-methyl-6-(2-methyl-2H-pyrazolo[3,4-b]pyridin-5-yl)-1-benzothiophen-2-yl)(4-morpholinyl)methanone] |
| 11.7 nM | Cc1c(C(=O)N2CCC(F)(F)CC2)sc2cc(-c3cnc4nn(C)cc4c3)ccc12 [Compound A3, (4,4-difluoro-1-piperidinyl)(3-methyl-6-(2-methyl-2H-pyrazolo[3,4-b]pyridin-5-yl)-1-benzothiophen-2-yl)methanone] |
| 225 nM | CO[C@@H]1CCN(C(=O)c2sc3cc(-c4cnc5nn(C)cc5c4)ccc3c2C)C1 [Compound A4R, ((3R)-3-methoxy-1-pyrrolidinyl)(3-methyl-6-(2-methyl-2H-pyrazolo[3,4-b]pyridin-5-yl)-1-benzothiophen-2-yl)methanone] |
| 19.5 nM | CO[C@H]1CCN(C(=O)c2sc3cc(-c4cnc5nn(C)cc5c4)ccc3c2C)C1 [Compound A4S, ((3S)-3-methoxy-1-pyrrolidinyl)(3-methyl-6-(2-methyl-2H-pyrazolo[3,4-b]pyridin-5-yl)-1-benzothiophen-2-yl)methanone] |
| 87.8 nM | COCCN(C)C(=O)c1sc2cc(-c3cnc4nn(C)cc4c3)ccc2c1C [Compound A5, N-(2-methoxyethyl)-N,3-dimethyl-6-(2-methyl-2H-pyrazolo[3,4-b]pyridin-5-yl)-1-benzothiophene-2-carboxamide] |
| 185 nM | Cc1c(C(=O)N2CCOC(C)(C)C2)sc2cc(-c3cnc4nn(C)cc4c3)ccc12 [Compound A6, (2,2-dimethyl-4-morpholinyl)(3-methyl-6-(2-methyl-2H-pyrazolo[3,4-b]pyridin-5-yl)-1-benzothiophen-2-yl)methanone] |
| 49.5 nM | CO[C@@H]1CCCN(C(=O)c2sc3cc(-c4cnc5nn(C)cc5c4)ccc3c2C)C1 [Compound A7R, ((3R)-3-methoxy-1-piperidinyl)(3-methyl-6-(2-methyl-2H-pyrazolo[3,4-b]pyridin-5-yl)-1-benzothiophen-2-yl)methanone] |
| 66.4 nM | CO[C@H]1CCCN(C(=O)c2sc3cc(-c4cnc5nn(C)cc5c4)ccc3c2C)C1 [Compound A7S, ((3S)-3-methoxy-1-piperidinyl)(3-methyl-6-(2-methyl-2H-pyrazolo[3,4-b]pyridin-5-yl)-1-benzothiophen-2-yl)methanone] |
| 4500 nM | Cc1c(C(=O)N2CCOCC2)sc2cc(-c3cncnc3)ccc12 [Compound A8, (3-methyl-6-(5-pyrimidinyl)-1-benzothiophen-2-yl)(4-morpholinyl)methanone] |
| 4960 nM | Cc1c(C(=O)N2CCOCC2)sc2cc(-c3ccc(=O)n(C)c3)ccc12 [Compound A9, 1-methyl-5-(3-methyl-2-(4-morpholinylcarbonyl)-1-benzothiophen-6-yl)-2(1H)-pyridinone] |

| IC50 | SMILES |
| --- | --- |
| 1610 nM | Cc1c(C(=O)N2CCOCC2)sc2cc(-c3cnc(NCCO)nc3)ccc12 [Compound A10] |
| 851 nM | Cc1c(C(=O)N2CCOCC2)sc2cc(-c3ccc4nn(C)cc4c3)ccc12 [Compound A11, (3-methyl-6-(2-methyl-2H-indazol-5-yl)-1-benzothiophen-2-yl)(4-morpholinyl)methanone] |
| 0.711 nM | Cn1cc2cc(-c3cc(C4CCC4)c4c(N)c(C(=O)N5CCOCC5)sc4n3)cnc2n1 [Compound B3, (3-amino-4-cyclobutyl-6-(2-methyl-2H-pyrazolo[3,4-b]pyridin-5-yl)thieno[2,3-b]pyridin-2-yl)(4-morpholinyl)methanone] |
| 0.255 nM | Cn1cc2cc(-c3cc(C4CCC4)c4c(N)c(C(=O)N5CCCCC5)sc4n3)cnc2n1 [Compound B5, (3-amino-4-cyclobutyl-6-(2-methyl-2H-pyrazolo[3,4-b]pyridin-5-yl)thieno[2,3-b]pyridin-2-yl)(1-piperidinyl)methanone] |
| 0.816 nM | C[C@@H]1COCCN1C(=O)c1sc2nc(-c3cnc4nn(C)cc4c3)cc(C3CCC3)c2c1N [Compound B6R, (3-amino-4-cyclobutyl-6-(2-methyl-2H-pyrazolo[3,4-b]pyridin-5-yl)thieno[2,3-b]pyridin-2-yl)((3R)-3-methyl-4-morpholinyl)methanone] |
| 0.554 nM | C[C@H]1COCCN1C(=O)c1sc2nc(-c3cnc4nn(C)cc4c3)cc(C3CCC3)c2c1N [Compound B6S, (3-amino-4-cyclobutyl-6-(2-methyl-2H-pyrazolo[3,4-b]pyridin-5-yl)thieno[2,3-b]pyridin-2-yl)((3S)-3-methyl-4-morpholinyl)methanone] |
| > 100000 nM | CC(C)c1cc[n+]([O-])c2sc(C(=O)N3CCCCC3)cc12 [Compound B7, (7-oxido-4-(2-propanyl)thieno[2,3-b]pyridin-2-yl)(1-piperidinyl)methanone] |
| 5.55 nM | Cn1cc2cc(-c3ccc4cc(C(=O)N5CCOCC5)sc4n3)cnc2n1 [Compound B8, (6-(2-methyl-2H-pyrazolo[3,4-b]pyridin-5-yl)thieno[2,3-b]pyridin-2-yl)(4-morpholinyl)methanone] |
| 6.39 nM | C[C@@H]1COCCN1C(=O)c1cc2ccc(-c3cnc4nn(C)cc4c3)nc2s1 [Compound B9R, ((3R)-3-methyl-4-morpholinyl)(6-(2-methyl-2H-pyrazolo[3,4-b]pyridin-5-yl)thieno[2,3-b]pyridin-2-yl)methanone] |
| 5.05 nM | C[C@H]1COCCN1C(=O)c1cc2ccc(-c3cnc4nn(C)cc4c3)nc2s1 [Compound B9S, ((3S)-3-methyl-4-morpholinyl)(6-(2-methyl-2H-pyrazolo[3,4-b]pyridin-5-yl)thieno[2,3-b]pyridin-2-yl)methanone] |
| 0.917 nM | Cn1cc2cc(-c3cc(C4CC4)c4cc(C(=O)N5CCOCC5)sc4n3)cnc2n1 [Compound B10, (4-cyclopropyl-6-(2-methyl-2H-pyrazolo[3,4-b]pyridin-5-yl)thieno[2,3-b]pyridin-2-yl)(4-morpholinyl)methanone] |
| 0.317 nM | Cn1cc2cc(-c3cc(C4CC4)c4cc(C(=O)N5CCCC(F)(F)C5)sc4n3)cnc2n1 [Compound B11, (4-cyclopropyl-6-(2-methyl-2H-pyrazolo[3,4-b]pyridin-5-yl)thieno[2,3-b]pyridin-2-yl)(3,3-difluoro-1-piperidinyl)methanone] |
| 0.704 nM | COCCN(C)C(=O)c1cc2c(C3CC3)cc(-c3cnc4nn(C)cc4c3)nc2s1 [Compound B12, 4-cyclopropyl-N-(2-methoxyethyl)-N-methyl-6-(2-methyl-2H-pyrazolo[3,4-b]pyridin-5-yl)thieno[2,3-b]pyridine-2-carboxamide] |
| 1.26 nM | Cn1cc2cc(-c3cc(-c4ccnn4C)c4cc(C(=O)N5CCOCC5)sc4n3)cnc2n1 [Compound B13, (6-(2-methyl-2H-pyrazolo[3,4-b]pyridin-5-yl)-4-(1-methyl-1H-pyrazol-5-yl)thieno[2,3-b]pyridin-2-yl)(4-morpholinyl)methanone] |
| 0.519 nM | Cn1cc2cc(-c3cc(-c4ccnn4C)c4cc(C(=O)N5CCSCC5)sc4n3)cnc2n1 [Compound B14, (6-(2-methyl-2H-pyrazolo[3,4-b]pyridin-5-yl)-4-(1-methyl-1H-pyrazol-5-yl)thieno[2,3-b]pyridin-2-yl)(4-thiomorpholinyl)methanone] |
